Where two headings read alike, the source gives them in different places.
How the values were obtained:
[1] = physchem; format: physicochemical; conditions: for remaining at 360 h: solid, 75% relative humidity, read-out: Content of the Active Ingredient after 15 days
Description: . Then, the content of the active ingredient not decomposed was analyzed using a high performance liquid chromatography. The sample containing only the active ingredient without a stabilizer was used as a control.
<Conditions for High Performance Liquid Chromatography>
Column: μ-Bondapak C18 (4.6×250 mm) or the like
Detector: Absorption photometer in ultraviolet part (wavelength: 280 nm)
Mobile Phase: acetonitrile/phosphate buffer (pH 7.8)=45/55, v/v

[2] = Stability of the microgranule prepared in the presence of a binding agent; format: physicochemical; conditions: microgranules of Table 3
Description: Microgranules were prepared according to the information represented in the following Table 3 using the stabilizers in a mole ratio of 1:1 with respect to the active ingredient (IY-81149) and using hydroxypropylmethylcellulose as a binding agent. A fluidized-bed granulator (SFC-MINI, FREUND. CO., LTD., Japan) by which the contact with the ambient moisture can be excluded and preparation and dryness of the granule can be simultaneously carried out in a short time was used. That is, the active ingredient and stabilizer were introduced into a chamber of the fluidized-bed granulator in the amounts shown in Table 3. Then, the binding agent-containing solution was sprayed under the influx air temperature (65° C.) of the chamber, during which the mixture of the active ingredient and stabilizer in the chamber was maintained at a temperature of 40° C. or less. The binding agent was used in an amount of 7% by weight with respect to the granule finally obtained, and the solvent water was used in an amount to dilute the binding agent by 15 times. Also, the total amount of the active ingredient and stabilizer to be introduced into the chamber was adjusted to 300 g. The average particle diameter of the microgranule prepared by appropriately controlling the spray rate and temperature was 0.8 mm.

SMILES | stabilizing effect upon the active ingredient of the present invention [1] | Content of the Active Ingredient, initial ([1]; stabilizer not used (control)) [%] | Content of the Active Ingredient, initial ([1]; with Al(OH)3, mole ratio 1:1) [%] | Content of the Active Ingredient, initial ([1]; with Arginine, mole ratio 1:1) [%] | Content of the Active Ingredient, initial ([1]; with Histidine, mole ratio 1:1) [%] | Content of the Active Ingredient, initial ([1]; with K2 CO3, mole ratio 1:1) [%] | Content of the Active Ingredient, initial ([1]; with K2 HPO4, mole ratio 1:1) [%] | Content of the Active Ingredient, initial ([1]; with KHCO3, mole ratio 1:1) [%] | Content of the Active Ingredient, initial ([1]; with Lysine, mole ratio 1:1) [%] | Content of the Active Ingredient, initial ([1]; with Mg(OH)2, mole ratio 1:1) [%] | Content of the Active Ingredient, initial ([1]; with Na2 CO3, mole ratio 1:1) [%] | Content of the Active Ingredient, initial ([1]; with Na2 HPO4, mole ratio 1:1) [%] | Content of the Active Ingredient, initial ([1]; with NaHCO3, mole ratio 1:1) [%] | also measured
[OH][Al]([OH])[OH] [Al(OH)3, aluminum hydroxide] | much less stabilizing effect than magnesium hydroxide |  |  |  |  |  |  |  |  |  |  |  |  | 
COc1ccnc(C[S+]([O-])c2nc3cc(-n4cccc4)ccc3[nH]2)c1C (centres unmarked) [IY-81149] |  | 100.1 | 99.6 | 99.2 | 100.6 | 100.5 | 100.0 | 100.3 | 100.6 | 99.8 | 99.4 | 99.2 | 98.9 | 
NCCCC[C@H](N)C(=O)O [Lysine, lysine] |  |  |  |  |  |  |  |  |  |  |  |  |  | stabilizing effect upon the active ingredient of the present invention ([1]; compared with the other stabilizers (Examples 1 and 2)): much less stabilizing effect than magnesium hydroxide
[Mg+2].[OH-].[OH-] [Mg(OH)2, magnesium hydroxide] | superior stabilizing effect |  |  |  |  |  |  |  |  |  |  |  |  | stabilizing effect compared with the other stabilizers [2]: superior stabilizing effect
COc1ccc2[nH]c([S+]([O-])Cc3ncc(C)c(OC)c3C)nc2c1 (centres unmarked) [Omeprazole, omeprazole, reference compound] |  | 99.3 | 99.6 | 99.1 | 99.7 | 100.0 | 99.4 | 99.9 | 99.2 | 100.2 | 100.1 | 99.8 | 99.7 | order of stabilizing effect of the tested stabilizers ([1]; mole ratio 1:1, 15 days, 40° C., relative humidity of 75%): Na2 HPO4 >NaHCO3 >Mg(OH)2 >arginine>Na2CO3 >K2 HPO4 >Al(OH)3 >histidine>K2 CO3 >lysine>KHCO3; remaining at 360 h ([1]; stabilizer not used (control), 40° C., relative humidity of 75%): 26.7%; remaining at 360 h ([1]; with Al(OH)3, mole ratio 1:1, 40° C., relative humidity of 75%): 67.6%; remaining at 360 h ([1]; with Arginine, mole ratio 1:1, 40° C., relative humidity of 75%): 76%; remaining at 360 h ([1]; with Histidine, mole ratio 1:1, 40° C., relative humidity of 75%): 67.1%; remaining at 360 h ([1]; with K2 CO3, mole ratio 1:1, 40° C., relative humidity of 75%): 63.9%; remaining at 360 h ([1]; with K2 HPO4, mole ratio 1:1, 40° C., relative humidity of 75%): 70.7%; remaining at 360 h ([1]; with KHCO3, mole ratio 1:1, 40° C., relative humidity of 75%): 59.4%; remaining at 360 h ([1]; with Lysine, mole ratio 1:1, 40° C., relative humidity of 75%): 60.3%; remaining at 360 h ([1]; with Mg(OH)2, mole ratio 1:1, 40° C., relative humidity of 75%): 86.1%; remaining at 360 h ([1]; with Na2 CO3, mole ratio 1:1, 40° C., relative humidity of 75%): 75.3%; remaining at 360 h ([1]; with Na2 HPO4, mole ratio 1:1, 40° C., relative humidity of 75%): 94%; remaining at 360 h ([1]; with NaHCO3, mole ratio 1:1, 40° C., relative humidity of 75%): 87.5%

— patent US6280773A, “Optimally stabilized microgranule comprising 5-pyrrolyl-2-pyridylmethylsulfinylbenzimidazole derivative” (IL Yang Pharm. Co., Ltd., priority 1998, dated 2001)
